Laboratory results published in patent publication US20230165831A1, “METHOD AND COMPOSITION FOR RENDERING CANCER CELLS SUSCEPTIBLE TO TREATMENT BY TARGETED ONCOGENETIC DRIVERS” (IMPACT BIOLIFE SCIENCE, INC., priority 2021, published 2023).
Like-named read-outs stand apart in the source and are kept apart here.

Legend:
[1] = system: breast cancer line T47D cells; assay: CTG (CellTiter-Glo) cell viability assay, 6×6 combo matrix, 72 h, T47D; conditions: Homo sapiens;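 note: luminescence read-out after 72 h at 37 °C under 5% CO2, with medium-only wells as blanks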
[2] = system: kidney cancer line 786-O cells; assay: CTG (CellTiter-Glo) cell viability assay, 6×6 combo matrix, 72 h, 786-O; conditions: Homo sapiens;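 note: luminescence read-out after adding CellTiter-Glo reagent, with cells incubated at 37 °C under 5% CO2 during compound exposure, part of a ten cell line synergy study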
[3] = system: Liver cancer line SK-HEP-1 cells; assay: CTG (CellTiter-Glo) cell viability assay, 6×6 combo matrix, 72 h, SK-Hep-1; conditions: Homo sapiens;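 note: luminescent signal read after 72 h compound exposure at 37 °C under 5% CO2, with medium-only wells serving as blank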
[4] = system: glioblastoma line U87MG cells; assay: CTG (CellTiter-Glo) cell viability assay, 6×6 combo matrix, 72 h, U87MG; conditions: Homo sapiens, U-87 MG;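 note: U87MG cells seeded at 2000 per well, exposed 72 h, viability read by CellTiter-Glo luminescence, inhibition expressed relative to vehicle-treated wells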
Experimental: To measure the cell inhibition effect of compounds and synergy effect of test articles on ten (10) cell lines using standard CTG assay.
7) Using complete cell medium, adjust the volume of the suspension to achieve a cell concentration.
U87MG cell lines, for compounds and vehicle groups, the seeding density of cell lines is 2000 cells/80 µL per well. For blank groups, add 100 µL medium. For PBS groups, add 100 µL PBS.
8) Incubate the U87MG, A549, T47D, SK-OV-3, MKN45, SK-Hep-1, HT-29, Capan-1, 786-O and LNCaP cells overnight at 37° C./5% CO2.
Solid compound of cis-platinum was solubilized in PBS to a stock solution of 3.333 mM.
Final volume is 100 µL per well at this point.
5) Incubate the plates at 37° C./5% CO2 for 72 hours.
1) Incubate the plates at room temperature and away from light for 30 minutes.
3) Add 100 µL /well of CellTiter-Glo® Reagent in each well. Avoid light.
4) Mix contents for 2 minutes on an orbital shaker.
5) Incubate plate at room temperature for 10 minutes to stabilize the luminescent signal.
6) Read plates in Envision.

## O=c1c(O)c(-c2cc(O)c(O)c(O)c2)oc2cc(O)cc(O)c12 [myricetin]
[1]; read-out: Relatively Cell inhibition of vehicle control(%), T47D, 0.8 µM myricetin only (cisplatin 0)
  inhibition at 0.8 µM: -1.72%
[1]; read-out: Relatively Cell inhibition of vehicle control(%), T47D, 0.8 µM myricetin only (doxorubicin 0)
  inhibition at 0.8 µM: 8.68%
[1]; read-out: Relatively Cell inhibition of vehicle control(%), T47D, 0.8 µM myricetin only (taxol 0)
  inhibition at 0.8 µM: 6.31%
[1]; read-out: Relatively Cell inhibition of vehicle control(%), T47D, 0.8 µM myricetin only (topotecan 0)
  inhibition at 0.8 µM: 1.93%
[1]; read-out: Relatively Cell inhibition of vehicle control(%), T47D, 4 µM myricetin only (cisplatin 0)
  inhibition at 4 µM: -0.88%
[1]; read-out: Relatively Cell inhibition of vehicle control(%), T47D, 4 µM myricetin only (doxorubicin 0)
  inhibition at 4 µM: 1.01%
[1]; read-out: Relatively Cell inhibition of vehicle control(%), T47D, 4 µM myricetin only (taxol 0)
  inhibition at 4 µM: 0.2%
[1]; read-out: Relatively Cell inhibition of vehicle control(%), T47D, 4 µM myricetin only (topotecan 0)
  inhibition at 4 µM: -2.25%
[1]; read-out: Relatively Cell inhibition of vehicle control(%), T47D, 20 µM myricetin only (cisplatin 0)
  inhibition at 20 µM: 2.08%
[1]; read-out: Relatively Cell inhibition of vehicle control(%), T47D, 20 µM myricetin only (doxorubicin 0)
  inhibition at 20 µM: 8.28%
[1]; read-out: Relatively Cell inhibition of vehicle control(%), T47D, 20 µM myricetin only (taxol 0)
  inhibition at 20 µM: 5.67%
[1]; read-out: Relatively Cell inhibition of vehicle control(%), T47D, 20 µM myricetin only (topotecan 0)
  inhibition at 20 µM: 3.54%
[1]; read-out: Relatively Cell inhibition of vehicle control(%), T47D, 100 µM myricetin only (cisplatin 0)
  inhibition at 100 µM: 25.4%
[1]; read-out: Relatively Cell inhibition of vehicle control(%), T47D, 100 µM myricetin only (doxorubicin 0)
  inhibition at 100 µM: 24.5%
[1]; read-out: Relatively Cell inhibition of vehicle control(%), T47D, 100 µM myricetin only (taxol 0)
  inhibition at 100 µM: 30%
[1]; read-out: Relatively Cell inhibition of vehicle control(%), T47D, 100 µM myricetin only (topotecan 0)
  inhibition at 100 µM: 22.2%
[2]; 786-0, read-out: Relatively Cell inhibition of vehicle control, myricetin 0.8 µM only (cisplatin table)
  inhibition at 0.8 µM: 0.79%
[2]; 786-0, read-out: Relatively Cell inhibition of vehicle control, myricetin 0.8 µM only (doxorubicin table)
  inhibition at 0.8 µM: 0.86%
[2]; 786-0, read-out: Relatively Cell inhibition of vehicle control, myricetin 0.8 µM only (taxol table)
  inhibition at 0.8 µM: 0.33%
[2]; 786-0, read-out: Relatively Cell inhibition of vehicle control, myricetin 0.8 µM only (topotecan table)
  inhibition at 0.8 µM: 0.12%
[2]; 786-0, read-out: Relatively Cell inhibition of vehicle control, myricetin 4 µM only (cisplatin table)
  inhibition at 4 µM: 2.54%
[2]; 786-0, read-out: Relatively Cell inhibition of vehicle control, myricetin 4 µM only (doxorubicin table)
  inhibition at 4 µM: 4.47%
[2]; 786-0, read-out: Relatively Cell inhibition of vehicle control, myricetin 4 µM only (taxol table)
  inhibition at 4 µM: 2.6%
[2]; 786-0, read-out: Relatively Cell inhibition of vehicle control, myricetin 4 µM only (topotecan table)
  inhibition at 4 µM: 4.03%
[2]; 786-0, read-out: Relatively Cell inhibition of vehicle control, myricetin 20 µM only (cisplatin table)
  inhibition at 20 µM: 10.8%
[2]; 786-0, read-out: Relatively Cell inhibition of vehicle control, myricetin 20 µM only (doxorubicin table)
  inhibition at 20 µM: 11.2%
[2]; 786-0, read-out: Relatively Cell inhibition of vehicle control, myricetin 20 µM only (taxol table)
  inhibition at 20 µM: 9.84%
[2]; 786-0, read-out: Relatively Cell inhibition of vehicle control, myricetin 20 µM only (topotecan table)
  inhibition at 20 µM: 10.4%
[2]; 786-0, read-out: Relatively Cell inhibition of vehicle control, myricetin 100 µM only (cisplatin table)
  inhibition at 100 µM: 43.4%
[2]; 786-0, read-out: Relatively Cell inhibition of vehicle control, myricetin 100 µM only (doxorubicin table)
  inhibition at 100 µM: 43.1%
[2]; 786-0, read-out: Relatively Cell inhibition of vehicle control, myricetin 100 µM only (taxol table)
  inhibition at 100 µM: 42%
[2]; 786-0, read-out: Relatively Cell inhibition of vehicle control, myricetin 100 µM only (topotecan table)
  inhibition at 100 µM: 44.8%
[3]; SK-HEP1, read-out: Relatively Cell inhibition of vehicle control, myricetin 0.8 µM only (cisplatin table)
  inhibition at 0.8 µM: -11.5%
[3]; SK-HEP1, read-out: Relatively Cell inhibition of vehicle control, myricetin 0.8 µM only (doxorubicin table)
  inhibition at 0.8 µM: -9.74%
[3]; SK-HEP1, read-out: Relatively Cell inhibition of vehicle control, myricetin 0.8 µM only (taxol table)
  inhibition at 0.8 µM: -6.66%
[3]; SK-HEP1, read-out: Relatively Cell inhibition of vehicle control, myricetin 0.8 µM only (topotecan table)
  inhibition at 0.8 µM: -19.3%
[3]; SK-HEP1, read-out: Relatively Cell inhibition of vehicle control, myricetin 4 µM only (cisplatin table)
  inhibition at 4 µM: 20.2%
[3]; SK-HEP1, read-out: Relatively Cell inhibition of vehicle control, myricetin 4 µM only (doxorubicin table)
  inhibition at 4 µM: 32.3%
[3]; SK-HEP1, read-out: Relatively Cell inhibition of vehicle control, myricetin 4 µM only (taxol table)
  inhibition at 4 µM: 22.8%
[3]; SK-HEP1, read-out: Relatively Cell inhibition of vehicle control, myricetin 4 µM only (topotecan table)
  inhibition at 4 µM: 16.8%
[3]; SK-HEP1, read-out: Relatively Cell inhibition of vehicle control, myricetin 20 µM only (cisplatin table)
  inhibition at 20 µM: 92.4%
[3]; SK-HEP1, read-out: Relatively Cell inhibition of vehicle control, myricetin 20 µM only (doxorubicin table)
  inhibition at 20 µM: 93.5%
[3]; SK-HEP1, read-out: Relatively Cell inhibition of vehicle control, myricetin 20 µM only (taxol table)
  inhibition at 20 µM: 92.8%
[3]; SK-HEP1, read-out: Relatively Cell inhibition of vehicle control, myricetin 20 µM only (topotecan table)
  inhibition at 20 µM: 93.2%
[3]; SK-HEP1, read-out: Relatively Cell inhibition of vehicle control, myricetin 100 µM only (cisplatin table)
  inhibition at 100 µM: 99.6%
[3]; SK-HEP1, read-out: Relatively Cell inhibition of vehicle control, myricetin 100 µM only (doxorubicin table)
  inhibition at 100 µM: 99.4%
[3]; SK-HEP1, read-out: Relatively Cell inhibition of vehicle control, myricetin 100 µM only (taxol table)
  inhibition at 100 µM: 99.6%
[3]; SK-HEP1, read-out: Relatively Cell inhibition of vehicle control, myricetin 100 µM only (topotecan table)
  inhibition at 100 µM: 99.4%
[4]; read-out: Relatively Cell inhibition of vehicle control(%), myricetin 0.8 µM only (cisplatin plate)
  inhibition at 0.8 µM: 1.25%
[4]; read-out: Relatively Cell inhibition of vehicle control(%), myricetin 0.8 µM only (doxorubicin plate)
  inhibition at 0.8 µM: -1.19%
[4]; read-out: Relatively Cell inhibition of vehicle control(%), myricetin 0.8 µM only (taxol plate)
  inhibition at 0.8 µM: 2.29%
[4]; read-out: Relatively Cell inhibition of vehicle control(%), myricetin 0.8 µM only (topotecan plate)
  inhibition at 0.8 µM: 3.94%
[4]; read-out: Relatively Cell inhibition of vehicle control(%), myricetin 4 µM only (cisplatin plate)
  inhibition at 4 µM: -0.71%
[4]; read-out: Relatively Cell inhibition of vehicle control(%), myricetin 4 µM only (doxorubicin plate)
  inhibition at 4 µM: 1.02%
[4]; read-out: Relatively Cell inhibition of vehicle control(%), myricetin 4 µM only (taxol plate)
  inhibition at 4 µM: 0.66%
[4]; read-out: Relatively Cell inhibition of vehicle control(%), myricetin 4 µM only (topotecan plate)
  inhibition at 4 µM: 3.52%
[4]; read-out: Relatively Cell inhibition of vehicle control(%), myricetin 20 µM only (cisplatin plate)
  inhibition at 20 µM: 9.21%
[4]; read-out: Relatively Cell inhibition of vehicle control(%), myricetin 20 µM only (doxorubicin plate)
  inhibition at 20 µM: 7.98%
[4]; read-out: Relatively Cell inhibition of vehicle control(%), myricetin 20 µM only (taxol plate)
  inhibition at 20 µM: 11.1%
[4]; read-out: Relatively Cell inhibition of vehicle control(%), myricetin 20 µM only (topotecan plate)
  inhibition at 20 µM: 8.45%
[4]; read-out: Relatively Cell inhibition of vehicle control(%), myricetin 100 µM only (cisplatin plate)
  inhibition at 100 µM: 46.8%
[4]; read-out: Relatively Cell inhibition of vehicle control(%), myricetin 100 µM only (doxorubicin plate)
  inhibition at 100 µM: 32.3%
[4]; read-out: Relatively Cell inhibition of vehicle control(%), myricetin 100 µM only (taxol plate)
  inhibition at 100 µM: 45.7%
[4]; read-out: Relatively Cell inhibition of vehicle control(%), myricetin 100 µM only (topotecan plate)
  inhibition at 100 µM: 43.4%
